Values of other authors as cited in paper PMC10591956 (Journal of controlled release : official journal of the …, 2023).

System: intraocular pressure (IOP)
Conditions: single intracameral injection, normotensive rabbits

Brc1c(NC2=NCCN2)ccc2nccnc12 [brimonidine]
duration of IOP reduction: 7 days
